From publication PMC10873978, “Novel tetrahydroisoquinolines as DHFR and CDK2 inhibitors: synthesis, characterization, anticancer activity and antioxidant properties” (BMC Chemistry, 2024)
“And” between values parts separate entries of the source, which are not always exact repeats. Identical values can stand only once. Like-named read-outs stand apart in the source and are kept apart here.

Key:
A549 cell line = test: In vitro cytotoxic activity, MTT method, A549; settings: Homo sapiens, read-out: IC50 ± SD
Method in brief: (§1)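 Monolayers formed over 24 h at 37 °C from 10^5 cells/mL were treated with graded compound concentrations, doxorubicin serving as reference. Viability came from MTT reduction over 1–5 h (5% CO2), absorbance at 560 nm with 620 nm background subtraction.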

MCF7 cell line = test: In vitro cytotoxic activity, MTT method, MCF7; assay type: cell-based, human
Method in brief: as §1

WI-38 cell line = test: Cytotoxicity on normal cell line WI-38; assay type: cell-based, human; settings: for IC50: read-out: Toxicity on WI38 IC50 ± SD; for % viability: human
[1] = Cytotoxicity on normal cell line WI-38; assay type: cell-based, human; settings: human, % viability
IKB kinase B = molecular target: T1, IKB kinase B (Homo sapiens, UniProt O14920); test: IKB kinase inhibition; assay type: biochemical; settings: IκB
T1 sequence (O14920 1-756): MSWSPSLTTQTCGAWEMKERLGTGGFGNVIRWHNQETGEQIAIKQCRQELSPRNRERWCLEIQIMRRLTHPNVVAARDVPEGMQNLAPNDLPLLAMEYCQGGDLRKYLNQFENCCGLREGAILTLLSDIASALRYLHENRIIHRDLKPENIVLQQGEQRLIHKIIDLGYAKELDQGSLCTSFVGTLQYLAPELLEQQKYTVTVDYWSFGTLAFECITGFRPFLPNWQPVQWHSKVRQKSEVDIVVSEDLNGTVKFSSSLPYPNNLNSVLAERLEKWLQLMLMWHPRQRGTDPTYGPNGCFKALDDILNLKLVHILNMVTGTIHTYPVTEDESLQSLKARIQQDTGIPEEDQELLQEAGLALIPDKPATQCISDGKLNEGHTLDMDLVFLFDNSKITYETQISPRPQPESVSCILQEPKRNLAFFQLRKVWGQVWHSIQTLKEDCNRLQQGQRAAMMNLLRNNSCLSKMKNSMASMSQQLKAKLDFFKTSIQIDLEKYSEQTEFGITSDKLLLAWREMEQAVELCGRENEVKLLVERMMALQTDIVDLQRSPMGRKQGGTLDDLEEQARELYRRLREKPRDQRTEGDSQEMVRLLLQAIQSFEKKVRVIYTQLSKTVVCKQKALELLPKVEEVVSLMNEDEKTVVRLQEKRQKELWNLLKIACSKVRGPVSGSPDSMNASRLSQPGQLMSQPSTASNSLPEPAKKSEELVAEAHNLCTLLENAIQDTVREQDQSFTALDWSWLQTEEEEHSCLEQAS

`COc1cccc2c1C(=O)c1c(O)c3c(c(O)c1C2=O)C[C@@](O)(C(=O)CO)C[C@@H]3O[C@H]1C[C@H](N)[C@H](O)[C@H](C)O1` [Doxorubicin, reference compound] gave an IC50 (A549 cell line) of 0.218 ± 0.005 µM, an IC50 (MCF7 cell line; Homo sapiens, MCF7, MCF7 cell line, MTT) of 0.053 ± 0.002 µM and a Toxicity % (MCF7 cell line; MCF7, 0.0487 µMol) of 48.12%. It also gave a Viability % (MCF7 cell line; MCF7, 0.0487 µMol) of 51.88%, a Toxicity % (MCF7 cell line; MCF7, 0.0975 µMol) of 52.667% and a Viability % (MCF7 cell line; MCF7, 0.0975 µMol) of 47.34%. It also gave a Toxicity % (MCF7 cell line; MCF7, 0.195 µMol) of 56.34%, a Viability % (MCF7 cell line; MCF7, 0.195 µMol) of 43.66% and a Toxicity % (MCF7 cell line; MCF7, 0.391 µMol) of 62.87%. For the same compound, the Viability % (MCF7 cell line; MCF7, 0.391 µMol) was 37.13%, the Toxicity % (MCF7 cell line; MCF7, 0.781 µMol) was 73.56% and the Viability % (MCF7 cell line; MCF7, 0.781 µMol) was 26.44%. For the same compound, the Toxicity % (MCF7 cell line; MCF7, 1.562 µMol) was 80.23%, the Viability % (MCF7 cell line; MCF7, 1.562 µMol) was 19.77% and the Toxicity % (MCF7 cell line; MCF7, 3.125 µMol) was 90.87%. The Viability % (MCF7 cell line; MCF7, 3.125 µMol) was 9.13%, the Toxicity % (MCF7 cell line; MCF7, 6.25 µMol) was 93.45% and the Viability % (MCF7 cell line; MCF7, 6.25 µMol) was 6.55%. The Toxicity % (MCF7 cell line; MCF7, 12.5 µMol) was 97.46%, the Viability % (MCF7 cell line; MCF7, 12.5 µMol) was 2.542% and the Toxicity % (MCF7 cell line; MCF7, 25 µMol) was 98.45%. For the same compound, the Viability % (MCF7 cell line; MCF7, 25 µMol) was 1.556%, the IC50 (WI-38 cell line; Homo sapiens, WI-38, normal human fetal lung fibroblast WI-38) was 11.4 µM and the “Selectivity index (SI)” value (WI-38 cell line; IC50 in WI-38 / IC50 in A549) was 52 and 52.4. The “% viability” value (WI-38 cell line; 1.55 µM) was 84.08%, the “% viability” value (WI-38 cell line; 3.25 µM) was 72.52% and the “% viability” value (WI-38 cell line; 12.5 µM) was 52.38%. The “% viability” value (WI-38 cell line; 25 µM) was 31.09%, the IC50 (WI-38 cell line; normal human fetal lung fibroblast WI-38) was 11.4 ± 0.37 µM and the viability at 1.55 µM [1] was 84.1%. It also gave a viability at 6.25 µM [1] of 64.5%, a viability at 12.5 µM [1] of 52.4% and a viability at 25 µM [1] of 31.1%.

For `NC(=O)Nc1sc(-c2ccc(F)cc2)cc1C(N)=O` [TPCA-1, reference compound], the “%inh” value (IKB kinase B; conc 0.01 (log -2)) was 32.5%, the “%inh” value (IKB kinase B; conc 0.1 (log -1)) was 53.6% and the “%inh” value (IKB kinase B; conc 1 (log 0)) was 71.3%. For the same compound, the “%inh” value (IKB kinase B; conc 10 (log 1)) was 88.6% and the “%inh” value (IKB kinase B; conc 100 (log 2)) was 95.2%.
